# pIC50: −log10 of the molar value.
# How the values were obtained:
# K562 = assay: Cytotoxicity against human K562 cells assessed as cell growth at 1 uM after 48 hrs by sulforhodamine B assay relative to control; type: functional; details: K562, 48 h, read-out: Activity
# MOLT-4 = assay: Cytotoxicity against human MOLT4 cells assessed as cell growth at 1 uM after 48 hrs by sulforhodamine B assay relative to control; type: functional; details: MOLT-4, 48 h, read-out: Activity
# TK-10 [1] = assay: Cytotoxicity against human TK10 cells assessed as cell growth at 0.01 uM after 48 hrs by sulforhodamine B assay relative to control; type: functional; details: TK-10, 48 h, read-out: Activity
# MDA-MB-468 = assay: Cytotoxicity against human MDA-MB-468 cells assessed as cell growth at 0.01 uM after 48 hrs by sulforhodamine B assay relative to control; type: functional; details: MDA-MB-468, 48 h, read-out: Activity
# SK-MEL-28 [2] = assay: Cytotoxicity against human SK-MEL-28 cells assessed as cell growth at 0.01 uM after 48 hrs by sulforhodamine B assay relative to control; type: functional; details: SK-MEL-28, 48 h, read-out: Activity
# U-251 [3] = assay: Cytotoxicity against human U251 cells assessed as cell growth at 0.01 uM after 48 hrs by sulforhodamine B assay relative to control; type: functional; details: U-251, 48 h, read-out: Activity
# A549 = assay: Cytotoxicity against human A549/ATCC cells assessed as cell growth at 0.1 uM after 48 hrs by sulforhodamine B assay relative to control; type: functional; details: A549, 48 h, read-out: Activity
# BT-549 [4] = assay: Cytotoxicity against human BT549 cells assessed as cell growth at 0.01 uM after 48 hrs by sulforhodamine B assay relative to control; type: functional; details: BT-549, 48 h, read-out: Activity
# Hs-578T = assay: Cytotoxicity against human Hs 578T cells assessed as cell growth at 0.01 uM after 48 hrs by sulforhodamine B assay relative to control; type: functional; details: read-out: Activity
# A498 = assay: Cytotoxicity against human A498 cells assessed as cell growth at 10 uM after 48 hrs by sulforhodamine B assay relative to control; type: functional; details: A498, 48 h, read-out: Activity
# U-251 [5] = assay: Cytotoxicity against human U251 cells assessed as cell growth at 1 uM after 48 hrs by sulforhodamine B assay relative to control; type: functional; details: U-251, 48 h, read-out: Activity
# HL-60(TB) = assay: Cytotoxicity against human HL-60(TB) cells assessed as cell growth at 1 uM after 48 hrs by sulforhodamine B assay relative to control; type: functional; details: HL-60, 48 h, read-out: Activity
# SK-MEL-28 [6] = assay: Cytotoxicity against human SK-MEL-28 cells assessed as cell growth at 1 uM after 48 hrs by sulforhodamine B assay relative to control; type: functional; details: SK-MEL-28, 48 h, read-out: Activity
# U-251 [7] = assay: Cytotoxicity against human U251 cells assessed as cell growth at 10 uM after 48 hrs by sulforhodamine B assay relative to control; type: functional; details: U-251, 48 h, read-out: Activity
# NCI-H322M = assay: Cytotoxicity against human NCI-H322M cells assessed as growth inhibition after 48 hrs by sulforhodamine B assay; type: functional
# MDA-MB-231 [8] = assay: Cytotoxicity against human MDA-MB-231 cells assessed as growth inhibition after 48 hrs by MTT assay; type: functional, cell-based; details: MDA-MB-231, 48 h
# TK-10 [9] = assay: Cytotoxicity against human TK10 cells assessed as cell growth at 0.1 uM after 48 hrs by sulforhodamine B assay relative to control; type: functional; details: TK-10, 48 h, read-out: Activity
# CCRF-CEM [10] = assay: Cytotoxicity against human CCRF-CEM cells assessed as cell growth at 0.01 uM after 48 hrs by sulforhodamine B assay relative to control; type: functional; details: read-out: Activity
# RXF 393 [11] = assay: Cytotoxicity against human RXF393 cells assessed as cell growth at 0.1 uM after 48 hrs by sulforhodamine B assay relative to control; type: functional; details: RXF 393, 48 h, read-out: Activity
# CCRF-CEM [12] = assay: Cytotoxicity against human CCRF-CEM cells assessed as cell growth at 1 uM after 48 hrs by sulforhodamine B assay relative to control; type: functional; details: read-out: Activity
# TK-10 [13] = assay: Cytotoxicity against human TK10 cells assessed as cell growth at 10 uM after 48 hrs by sulforhodamine B assay relative to control; type: functional; details: TK-10, 48 h, read-out: Activity
# SR [14] = assay: Cytotoxicity against human SR cells assessed as growth inhibition after 48 hrs by sulforhodamine B assay; type: functional; details: for CC50: read-out: LC50 (the source's name)
# SN12C [15] = assay: Cytotoxicity against human SN12C cells assessed as cell growth at 10 uM after 48 hrs by sulforhodamine B assay relative to control; type: functional; details: read-out: Activity
# RXF 393 [16] = assay: Cytotoxicity against human RXF393 cells assessed as cell growth at 100 uM after 48 hrs by sulforhodamine B assay relative to control; type: functional; details: RXF 393, 48 h, read-out: Activity
# HT-29 = assay: Cytotoxicity against human HT-29 cells assessed as cell growth at 10 uM after 48 hrs by sulforhodamine B assay relative to control; type: functional; details: HT-29, 48 h, read-out: Activity
# UACC-257 = assay: Cytotoxicity against human UACC257 cells assessed as growth inhibition after 48 hrs by sulforhodamine B assay; type: functional; details: UACC-257, 48 h
# MDA-MB-231 [17] = assay: Cytotoxicity against human MDA-MB-231 cells assessed as cell growth at 0.01 uM after 48 hrs by sulforhodamine B assay relative to control; type: functional; details: MDA-MB-231, 48 h, read-out: Activity
# SN12C [18] = assay: Cytotoxicity against human SN12C cells assessed as cell growth at 0.1 uM after 48 hrs by sulforhodamine B assay relative to control; type: functional; details: read-out: Activity
# SNB-19 = assay: Cytotoxicity against human SNB19 cells assessed as cell growth at 10 uM after 48 hrs by sulforhodamine B assay relative to control; type: functional; details: SNB-19, 48 h, read-out: Activity
# SR [19] = assay: Cytotoxicity against human SR cells assessed as cell growth at 0.01 uM after 48 hrs by sulforhodamine B assay relative to control; type: functional; details: read-out: Activity
# UO-31 = assay: Cytotoxicity against human UO31 cells assessed as growth inhibition after 48 hrs by sulforhodamine B assay; type: functional; details: UO-31, 48 h
# SK-MEL-28 [20] = assay: Cytotoxicity against human SK-MEL-28 cells assessed as cell growth at 0.1 uM after 48 hrs by sulforhodamine B assay relative to control; type: functional; details: SK-MEL-28, 48 h, read-out: Activity
# BT-549 [21] = assay: Cytotoxicity against human BT549 cells assessed as cell growth at 100 uM after 48 hrs by sulforhodamine B assay relative to control; type: functional; details: BT-549, 48 h, read-out: Activity
# Malme-3M = assay: Cytotoxicity against human MALME-3M cells assessed as growth inhibition after 48 hrs by sulforhodamine B assay; type: functional
# M14 = assay: Cytotoxicity against human M14 cells assessed as cell growth at 100 uM after 48 hrs by sulforhodamine B assay relative to control; type: functional; details: M14, 48 h, read-out: Activity
# MDA-MB-435 = assay: Cytotoxicity against human MDA-MB-435 cells assessed as cell growth at 1 uM after 48 hrs by sulforhodamine B assay relative to control; type: functional; details: MDA-MB-435, 48 h, read-out: Activity
# OVCAR-4 = assay: Cytotoxicity against human OVCAR4 cells assessed as cell growth at 10 uM after 48 hrs by sulforhodamine B assay relative to control; type: functional; details: OVCAR-4, 48 h, read-out: Activity
compound,measurement,setting,value
COc1ccc(-c2cc(/C=C/C(=O)c3ccc(N)cc3)[nH]n2)cc1,growth at 1 µM,K562,58%
same,growth at 1 µM,MOLT-4,80%
same,growth at 0.01 µM,TK-10 [1],93%
same,growth at 0.01 µM,MDA-MB-468,103%
same,growth at 0.01 µM,SK-MEL-28 [2],98%
same,growth at 0.01 µM,U-251 [3],97%
same,growth at 0.1 µM,A549,98%
same,growth at 0.01 µM,BT-549 [4],92%
same,growth at 0.01 µM,Hs-578T,98%
same,growth at 10 µM,A498,-39%
same,growth at 1 µM,U-251 [5],65%
same,growth at 1 µM,HL-60(TB),61%
same,growth at 1 µM,SK-MEL-28 [6],91%
same,growth at 10 µM,U-251 [7],-94%
same,GI50,NCI-H322M,1.84 µM
same,TGI,NCI-H322M,9.27 µM
same,CC50,NCI-H322M; read-out: LC50 (the source's name),31.6 µM
same,pIC50,MDA-MB-231 [8],5.77
same,growth at 0.1 µM,TK-10 [9],95%
same,growth at 0.01 µM,CCRF-CEM [10],99%
same,growth at 0.1 µM,RXF 393 [11],88%
same,growth at 1 µM,CCRF-CEM [12],61%
same,growth at 10 µM,TK-10 [13],12%
same,GI50,SR [14],0.79 µM
same,TGI,SR [14],6.09 µM
same,CC50,SR [14],60.1 µM
same,growth at 10 µM,SN12C [15],-16%
same,growth at 100 µM,RXF 393 [16],-63%
same,growth at 10 µM,HT-29,-10%
same,GI50,UACC-257,1.9 µM
same,LC50,UACC-257,9.36 µM
same,TGI,UACC-257,4.21 µM
same,growth at 0.01 µM,MDA-MB-231 [17],93%
same,growth at 0.1 µM,SN12C [18],94%
same,growth at 10 µM,SNB-19,5%
same,growth at 0.01 µM,SR [19],94%
same,GI50,UO-31,1.18 µM
same,LC50,UO-31,5.54 µM
same,TGI,UO-31,2.56 µM
same,growth at 0.1 µM,SK-MEL-28 [20],91%
same,growth at 100 µM,BT-549 [21],-61%
same,GI50,Malme-3M,2.18 µM
same,LC50,Malme-3M,28.8 µM
same,TGI,Malme-3M,6.22 µM
same,growth at 100 µM,M14,-71%
same,growth at 1 µM,MDA-MB-435,85%
same,growth at 10 µM,OVCAR-4,-6%
COc1ccc(C(=O)/C=C/c2cc(-c3cc(OC)c(OC)c(OC)c3)n[nH]2)cc1,growth at 1 µM,K562,89%
same,growth at 1 µM,MOLT-4,102%
same,growth at 0.01 µM,TK-10 [1],89%
same,growth at 0.01 µM,MDA-MB-468,89%
same,growth at 0.01 µM,SK-MEL-28 [2],105%
same,growth at 0.01 µM,U-251 [3],97%
same,growth at 0.1 µM,A549,101%
same,growth at 0.01 µM,BT-549 [4],97%
same,growth at 0.01 µM,Hs-578T,99%
same,growth at 10 µM,A498,-57%
same,growth at 1 µM,U-251 [5],81%
same,growth at 1 µM,HL-60(TB),99%
same,growth at 1 µM,SK-MEL-28 [6],101%
same,growth at 10 µM,U-251 [7],-98%
same,TGI,NCI-H322M,4.07 µM
same,pIC50,MDA-MB-231 [8],6.02
same,growth at 0.1 µM,TK-10 [9],93%
same,growth at 0.01 µM,CCRF-CEM [10],99%
same,growth at 0.1 µM,RXF 393 [11],90%
same,growth at 1 µM,CCRF-CEM [12],62%
same,growth at 10 µM,TK-10 [13],-29%
same,TGI,SR [14],23.9 µM
same,CC50,SR [14],> 100 µM
same,growth at 10 µM,SN12C [15],-69%
same,growth at 100 µM,RXF 393 [16],-93%
same,growth at 10 µM,HT-29,-58%
same,TGI,UACC-257,3.74 µM
same,growth at 0.01 µM,MDA-MB-231 [17],104%
same,growth at 0.1 µM,SN12C [18],96%
same,growth at 10 µM,SNB-19,-85%
same,growth at 0.01 µM,SR [19],97%
same,LC50,UO-31,5.59 µM
same,TGI,UO-31,2.84 µM
same,growth at 0.1 µM,SK-MEL-28 [20],104%
same,growth at 100 µM,BT-549 [21],-49%
same,TGI,Malme-3M,3.85 µM
same,growth at 100 µM,M14,-7%
same,growth at 1 µM,MDA-MB-435,92%
same,growth at 10 µM,OVCAR-4,-7%
